Patent US12358918B2, “Aryl hydrocarbon receptor (AHR) activator compounds as cancer therapeutics” (THE BROAD INSTITUTE, INC., priority 2018, dated 2025)
Read-outs that look alike come from different tables or passages of the source.

How the values were obtained:
[1] = molecular target: recombinant human Adenosine A2A (FAST-002C) receptor (Homo sapiens, UniProt P29274); experiment: cAMP HTRF assay, Adenosine A2A receptor, antagonist mode; assay type: cell-based
[2] = molecular target: T1, recombinant human Adenosine A3 (FAST-004C) receptor (Homo sapiens, UniProt P0DMS8); experiment: cAMP HTRF assay, Adenosine A3 receptor, antagonist mode; assay type: cell-based
T1 sequence (P0DMS8 1-318): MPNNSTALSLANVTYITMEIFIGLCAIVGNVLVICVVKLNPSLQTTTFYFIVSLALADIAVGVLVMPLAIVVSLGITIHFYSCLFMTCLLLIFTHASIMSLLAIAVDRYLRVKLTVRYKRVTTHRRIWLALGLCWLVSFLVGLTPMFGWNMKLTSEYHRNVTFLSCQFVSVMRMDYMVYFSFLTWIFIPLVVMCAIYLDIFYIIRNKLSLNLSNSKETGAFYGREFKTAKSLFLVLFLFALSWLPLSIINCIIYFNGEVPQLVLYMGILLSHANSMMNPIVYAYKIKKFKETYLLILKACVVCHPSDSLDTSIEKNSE

[3] = tested on: MDA-MB-231 breast cancer cell lines; experiment: cytotoxicity, control cells vs cells overexpressing CYP1A1; assay type: cell-based
Source text: The dependence of each compound's cytotoxic effects upon CYP1A1 was also examined, via screening of MDA-MB-231 breast cancer cell lines for cytotoxic response. The CYP1A1-dependence of the cytotoxic response of to each tested compound was specifically determined by comparing the cytotoxicity of each compound administered to control cells with that of the compound administered to corresponding cells that overexpressed CYP1A1. […]

[4] = tested on: MDA-MB-468 and ZR51 breast cancer and JHH7 liver cancer cell lines
[5] = molecular target: T2, recombinant human Adenosine A1 (FAST-001C) receptor (Homo sapiens, UniProt P30542); experiment: cAMP HTRF assay, Adenosine A1 receptor, antagonist mode; parameters: inhibition: dose or concentration left out as unconfirmed; conditions: for inhibition: CHO-K1, read-out: % Inhibition Average at maximal concentration; for Hill Coefficient: antagonist mode dose-response fit
T2 sequence (P30542 1-326): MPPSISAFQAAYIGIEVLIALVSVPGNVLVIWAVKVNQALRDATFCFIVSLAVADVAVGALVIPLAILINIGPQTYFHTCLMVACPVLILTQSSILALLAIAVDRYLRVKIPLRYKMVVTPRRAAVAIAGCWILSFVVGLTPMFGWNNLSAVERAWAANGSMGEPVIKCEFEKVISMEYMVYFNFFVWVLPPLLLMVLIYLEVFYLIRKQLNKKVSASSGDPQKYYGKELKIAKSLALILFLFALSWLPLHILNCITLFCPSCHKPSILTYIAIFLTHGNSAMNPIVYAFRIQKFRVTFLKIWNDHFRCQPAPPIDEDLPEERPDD

[6] = molecular target: T3, recombinant human Adenosine A2B (FAST-003C) receptor (Homo sapiens, UniProt P29275); experiment: cAMP HTRF assay, Adenosine A2B receptor, antagonist mode; parameters: inhibition: dose or concentration left out as unconfirmed; conditions: for inhibition: HEK293, read-out: % Inhibition Average at maximal concentration; for Hill Coefficient: antagonist mode dose-response fit
T3 sequence (P29275 1-332): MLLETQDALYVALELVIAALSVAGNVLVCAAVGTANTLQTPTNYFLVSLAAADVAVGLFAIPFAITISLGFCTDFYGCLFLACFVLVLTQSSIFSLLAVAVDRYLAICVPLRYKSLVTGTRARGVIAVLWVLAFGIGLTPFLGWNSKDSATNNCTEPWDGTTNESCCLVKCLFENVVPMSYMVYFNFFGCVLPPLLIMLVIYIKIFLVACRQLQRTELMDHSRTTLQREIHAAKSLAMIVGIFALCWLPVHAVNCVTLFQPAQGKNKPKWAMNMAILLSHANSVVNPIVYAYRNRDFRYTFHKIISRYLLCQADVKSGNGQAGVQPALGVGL

[7] = tested on: ZR-75-1 breast cancer cells; experiment: Synergy/antagonism testing; assay type: cell-based; conditions: co-treatment with CGS-15943, 120H; FIG. 14
Procedure: 1000 cells per well were seeded in 384 well clear bottom tissue culture plates and incubated overnight at 37° C. and 4% CO2. The following day, compounds were dispensed in a combination grid format using the Tecan Digital Dispenser. Plates were incubated for 5 days and then viability was assayed using CellTiter-Glo® Cellular Viability Assay. Analysis and Synergy plots were generated using the publicly available Combenefit software package.
AHR has been previously described to bind a range of endogenous and exogenous aromatic ligands (Denison et al. Tox. Sci. 2004, see Table 2), resulting in the formation of a nuclear heterodimer with ARNT. The dimer then binds dioxin-responsive elements and drives gene expression, after nuclear translocation. AHR has been described to bind a wide range of aromatic substrates including agonists, antagonists, and modulators.

[8] = tested on: MDA-MB-468 and ZR51 breast cancer and JHH7 liver cancer cell lines; experiment: 5 day cytotoxicity, control cells vs sgRNA knock out of AHR; conditions: cytotoxicity in control cells compared with AHR sgRNA knock out cells; FIGS. 23 and 24
[9] = tested on: Twelve different breast cancer cell lines; experiment: adenosine receptor antagonists and agonists dosed on twelve breast cancer cell lines; assay type: cell-based; conditions: 32 adenosine receptor antagonists/agonists compared; FIG. 6B
578 cancer cell lines = experiment: PRISM multiplexed cellular viability screening; assay type: cell-based; conditions: relation to FOXA1 / FOXA1 target expression across cell lines
Procedure: The instant discovery was made using large-scale multiplex profiling of existing drugs against 578 cancer cell lines, employing a PRISM multiplexed cellular viability assay.
Parental cell lines were obtained from the Cancer Cell Line Encyclopedia (CCLE) project (1). PRISM cell line barcoding, pooling, and screening was performed as previously described with several improvements to the original method (2). First, the lentiviral vector was modified to encode the unique barcode identifier at the end of the puromycin resistance gene. This enables barcodes to be detected using a variant of the mRNA capture and Luminex detection method developed for the L1000 gene expression assay (3). Second, a set of ten inert barcodes were spiked-in to each well of each plate after cell lysis to control for variation in PCR amplification as detailed below.
Luminex technology produced .Ixb files containing data for each Luminex bead observed during detection. These .Ixb files were processed to compute Median Fluorescence Intensity (MFI) values, calculated as the median of the values obtained for all beads corresponding to a single PRISM barcode.
MFI values were log-transformed (log MFI) and used to perform basic quality control. To detect probable screening artifacts, log MFI values were centered to the median log MFI for each cell line on each plate in order to put the measurements from each cell line on the same scale. For each well on each plate, the median of these centered values was then standardized according to the global median and global MAD across all plate wells in the same position. Data from wells with a standardized score of greater than 5 or less than −5 were excluded from all further processing steps.
For each cell line on each plate, the distribution of MFI values observed for the DMSO-treated negative controls was compared to that of the positive controls using a robust form of the Strictly Standardized Mean Difference (SSMD*)′. Specifically, SSMD* was calculated as: […]
Data corresponding to SSMD values less than 2 were removed before calculating cell viability.
The data in the instant disclosure were produced according to two different screening protocols. In the PR500 protocol, ten inert barcodes were spiked-in to each well of each plate after cell lysis. For data produced using the PR500 protocol, normalized MFI (nMFI) values were computed by taking the ratio of each MFI value against the median of the inert barcodes within each well. […]
Cell viability was calculated as the ratio of nMFI to the median of the nMFI from the DMSO-treated negative controls for each cell line on each plate. […] The final viability values were calculated as the median of the batch-corrected cell viabilities from biological replicates for each cell line, compound and dose. […]

[10] = tested on: MDA-MB-468 breast cancer cells; experiment: Western immunoblot of treated cells over 24 hours; assay type: cell-based; conditions: FIG. 18
Procedure: Adherent cells were washed once with cold 1×PBS (Corning #01018002) and lysed with RIPA buffer (Sigma #R0278) supplemented by protease and phosphatase inhibitors (Sigma). Protein content was quantified using the DC Protein Assay (BioRad #5000111). Samples were reduced with (loading buffer) and boiled at 95° C. before being resolved by SDS gel electrophoresis on 4-20% Tris/glycine gels (Invitrogen). Proteins were transferred using the IBlot2 (Thermo #IB21001) onto the iBlot™ 2 nitrocellulose Transfer Stacks (Thermo #IB23001). The membranes were then blocked in Odyssey Blocking Buffer (Li-COR #927-40000) for one hour, and then probed overnight with primary antibodies diluted in blocking buffer. The following day, membranes were washed 3×5 mins with 1×TBST and then probed with LiCOR Infrared secondary antibodies for 1 hour at room temperature. Membranes were washed an additional 3×5 mins in 1×TBST and then imaged using the LiCOR Imager. […]

[11] = tested on: MDA-MB-468 breast cancer cells possessing AHR knockout; experiment: dose response in AHR knockout (AHR_sg3) cells; assay type: cell-based; conditions: FIG. 17
Source text: Biological replicates were averaged and normalized to vehicle control. Dose curves were generated using Graphpad Prism.

A3 receptors = molecular target: T4, A3 receptors (Homo sapiens, UniProt P0DMS8); conditions: previously characterized; cited from earlier work
T4 sequence (P0DMS8 1-318): T1 sequence (P0DMS8 1-318)

[12] = HEK293; read-out: % Inhibition Average at maximal concentration
[13] = antagonist mode dose-response fit
[14] = antagonist mode; HEK293; reference agonist NECA
[15] = CHO-K1; read-out: % Inhibition Average at maximal concentration
[16] = HEK293, read-out: % Inhibition Average at maximal concentration

Sequence of recombinant human Adenosine A2A (FAST-002C) receptor (P29274 whole entry): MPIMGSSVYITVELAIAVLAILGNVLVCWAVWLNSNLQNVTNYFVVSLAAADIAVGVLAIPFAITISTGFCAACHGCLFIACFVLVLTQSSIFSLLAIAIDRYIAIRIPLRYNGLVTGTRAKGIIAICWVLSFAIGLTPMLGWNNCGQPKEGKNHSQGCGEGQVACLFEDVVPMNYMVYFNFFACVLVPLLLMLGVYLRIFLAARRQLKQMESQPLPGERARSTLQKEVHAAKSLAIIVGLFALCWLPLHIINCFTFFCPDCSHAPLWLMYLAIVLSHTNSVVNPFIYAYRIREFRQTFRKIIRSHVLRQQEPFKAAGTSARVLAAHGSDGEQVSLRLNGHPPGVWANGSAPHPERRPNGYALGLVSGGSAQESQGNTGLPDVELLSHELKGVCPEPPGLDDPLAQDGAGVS

inhibition at 10 µM [2, 15] [%] | IC50 [6] [nM] | Hill Coefficient [6] | SMILES | CYP1A1-dependence of the cytotoxic response [3] | AHR-dependence of the cytotoxic response [4] | IC50 [5] [nM] | inhibition [5] [%] | Hill Coefficient [5] | inhibition [6] [%] | cell killing profile in PRISM (578 cancer cell lines) | also measured
31 | 2140 | 1.80 | C=C1Nc2ccccc2-c2nc(-c3ccco3)nn21 | CYP1A1-dependent cytotoxic | dependence upon AHR | 493 | 96.1 | 1.17 | 109 | – | inhibition at 10 µM [1, 12]: 99.2%; Hill Coefficient [1, 13]: 1.72; IC50 [1, 14]: 1330 nM
– | – | – | COc1ccc(-c2cc(=O)c3cc(OC)ccc3o2)c(OC)c1 | – | – | – | – | – | – | – | interaction with CGS-15943 (3D Synergy plot) [7]: pronounced antagonism to CGS-15943
– | – | – | Cc1ccc2cc3c(ccc4ccccc43)c3c2c1CC3 [3-Methylcholanthrene, reference compound] | – | – | – | – | – | – | – | CYP1A1-dependence of the cytotoxic response ([3]; control MDA-MB-231 compared with cells overexpressing CYP1A1): CYP1A1-dependent cytotoxic; AHR-dependence of the cytotoxic response [8]: dependence upon AHR
– | – | – | CN(C)c1nc2ccc(Cl)cc2c2nc(-c3ccco3)nn12 [BRO-020, 9-chloro-2-(furan-2-yl)-N,N-dimethyl-[1,2,4]triazolo[1,5-c]quinazolin-5-amine] | – | – | 72.4 | 81.1 | 0.83 | 9.09 | – | inhibition at 10 µM [1, 16]: 18.4%; inhibition at 10 µM ([2]; CHO-K1, read-out: % Inhibition Average at maximal concentration): 8.55%
29.5 | 2500 | 1.39 | Clc1ccc2ncn3nc(-c4ccco4)nc3c2c1 [BRO-022, 9-chloro-2-(furan-2-yl)-[1,2,4]triazolo[1,5-c]quinazoline] | – | – | 170 | 101 | 1.06 | 97.8 | – | inhibition at 10 µM [1, 12]: 60.7%
– | – | – | O=C(Cc1ccccc1)Nc1nc2ccc(Cl)cc2c2nc(-c3ccco3)nn12 [MRS-1220, reference compound] | CYP1A1-dependent cytotoxic | dependence upon AHR | – | – | – | – | cell killing profile specific for such FOXA1-dependent cancer cell lines | cytotoxicity to breast cancer cell lines [9]: cytotoxic
– | – | – | Cc1cc(-c2nc3cc(F)ccc3s2)ccc1NC(=O)[C@@H](N)CCCCN.Cl.Cl [Phortress] | – | – | – | – | – | – | more broadly cytotoxic | CYP1A1 expression ([10]; 24 hour time course): induced CYP1A1 expression; FOXA1 levels ([10]; 24 hour time course): maintenance of FOXA1 levels; DNA double stranded breaks (pH2A.X) and PARP cleavage ([10]; within 24 hours): induced DNA double stranded breaks; rescue of killing by AHR knockout ([11]; 10 μM): AHR knockout did not rescue cells from Phortress killing; cytotoxicity at high doses ([11]; AHR knockout cells): non-specific cytotoxicity at high doses
– | – | – | Nc1nc2c(cnn2CCc2ccccc2)c2nc(-c3ccco3)nn12 [SCH-58261] | CYP1A1-dependent cytotoxic | dependence upon AHR | – | – | – | – | cell killing profile specific for such FOXA1-dependent cancer cell lines | cytotoxicity to breast cancer cell lines [9]: cytotoxic; Ki (A3 receptors): > 10000 nM

SMILES | inhibition at 10 µM [2, 15] [%] | IC50 [6] [nM] | Hill Coefficient [6] | CYP1A1-dependence of the cytotoxic response [3] | AHR-dependence of the cytotoxic response [4] | IC50 [5] [nM] | inhibition [5] [%] | Hill Coefficient [5] | inhibition [6] [%] | cell killing profile in PRISM (578 cancer cell lines) | also measured
Cc1ccc(-c2nc3c4cc(Cl)ccc4nc(N)n3n2)o1 [BRO-013] | 74.2 | 116 | 1.76 | CYP1A1-dependent cytotoxic | dependence upon AHR | 7.94 | 107 | 1.18 | 110 | – | inhibition at 10 µM [1, 16]: 112%; Hill Coefficient [1, 13]: 1.39; IC50 [1, 14]: 27.2 nM; Hill Coefficient [2, 13]: 1.04; IC50 ([2]; antagonist mode; CHO-K1; reference agonist IB-MECA): 730 nM
